{"source": "patent US20230233500A1", "about": "“Gasdermin D (GSDMD) Succination for the Treatment of Inflammatory Disease” (University of Massachusetts, priority 2020, published 2023)", "key": {"BMDMs": {"system": "BMDMs", "assay": "Pyroptosis in BMDMs after transfected LPS, Salmonella infection or poly (dA:dT)", "type": "cell-based, mouse", "method": "FIGS. 5A-G. Fumarate inhibits pyroptosis. (A) SYTOX Orange and Hoechst stained WT BMDMs treated with LPS for 2 hours, DMSO (vehicle) or fumarate (25 μM) for 1 hour and nigericin for 6 hours. (B) LDH assay conditioned medium from WT BMDMs treated with LPS for 3 hours, nigericin for the indicated times and DMSO (vehicle) or fumarate (25 μM) 15 minutes after each nigericin (10 μM) timepoint. (C) Immunoblot analysis of GSDMD in BMDMs treated as in […]. (D-E) LDH (D) and immunoblot analysis of GSDMD and β-actin in lysates (E) from WT BMDMs treated with DMSO (vehicle) or fumarate ([…]) for 1 hour followed by salmonella infection (MOI 10) for 6 hours. (F-G) LDH (F) and immunoblot analysis of GSDMD and β-actin in lysates (G) from WT BMDMs primed with LPS for 2 hours, followed by treatment with fumarate (25 μM) transfection with Poly (dA:dT) (1 μg). A, C, E, G are representative of 3 independent experiments. B, D, F are pooled data from 3 independent experiments. ***, P<0.001, ****, P<0.00001 (Two-way ANOVA). Error bars show means±SEM.\nCells were plated, treated and incubated in phenol red free medium. Following treatment medium was collected and assessed for LDH release using the CytoTox96 non-radioactive cytotoxicity assay (Promega) as per manufacturer's instructions. Kinetic cell death assays were performed using SytoxOrange and the Biotek Cytation5.\nCells were primed with LPS (100 ng/ml) from Escherichia coli serotype EH100 (ra) TLRgrade for 3 h followed by stimulation with the inflammasome activator Nigericin ([…]) for 1 h. For noncanonical inflammasome activation, cells were primed with […] Pam3CSK4 (Invivogen) for 2 h, followed by transfection of LPS (2 μg/ml) using Lipofectamine 2000 for 16 hours."}, "m.GSDMD": {"biological_target": "T1, m.GSDMD (Mus musculus, UniProt Q9D8T2)", "T1 sequence (Q9D8T2 1-487)": "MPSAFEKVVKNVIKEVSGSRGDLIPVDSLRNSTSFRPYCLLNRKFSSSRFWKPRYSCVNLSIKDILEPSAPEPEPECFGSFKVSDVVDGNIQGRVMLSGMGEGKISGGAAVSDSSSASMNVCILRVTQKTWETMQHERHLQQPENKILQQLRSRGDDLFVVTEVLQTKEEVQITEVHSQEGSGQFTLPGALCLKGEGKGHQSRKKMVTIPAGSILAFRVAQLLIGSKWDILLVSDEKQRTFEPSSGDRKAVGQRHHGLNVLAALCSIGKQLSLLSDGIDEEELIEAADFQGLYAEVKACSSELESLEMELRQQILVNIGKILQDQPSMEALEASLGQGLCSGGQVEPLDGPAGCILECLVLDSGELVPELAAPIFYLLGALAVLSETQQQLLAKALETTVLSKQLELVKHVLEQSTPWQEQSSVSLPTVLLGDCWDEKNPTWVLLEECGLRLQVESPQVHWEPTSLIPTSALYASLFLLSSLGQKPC", "assay": "In vitro succination reaction with LC-MS/MS peptide mapping", "type": "binding", "details": "recombinant m.GSDMD"}, "h.GSDME": {"biological_target": "T2, h.GSDME (Homo sapiens, UniProt O60443)", "T2 sequence (O60443 1-496)": "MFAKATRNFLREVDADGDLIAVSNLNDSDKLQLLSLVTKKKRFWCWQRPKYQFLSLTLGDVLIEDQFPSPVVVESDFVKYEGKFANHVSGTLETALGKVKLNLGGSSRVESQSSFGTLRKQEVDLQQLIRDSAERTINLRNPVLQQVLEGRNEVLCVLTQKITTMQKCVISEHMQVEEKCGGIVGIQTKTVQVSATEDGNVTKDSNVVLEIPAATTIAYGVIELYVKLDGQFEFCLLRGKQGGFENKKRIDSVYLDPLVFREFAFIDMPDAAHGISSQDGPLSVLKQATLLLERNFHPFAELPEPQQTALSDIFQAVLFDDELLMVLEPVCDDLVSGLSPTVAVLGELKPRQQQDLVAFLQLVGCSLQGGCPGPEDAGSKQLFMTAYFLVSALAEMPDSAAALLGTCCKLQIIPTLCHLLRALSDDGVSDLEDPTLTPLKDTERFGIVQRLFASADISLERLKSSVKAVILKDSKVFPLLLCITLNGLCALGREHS", "assay": "In vitro succination reaction with LC-MS/MS peptide mapping", "type": "binding"}, "[1]": {"system": "GSDMD-deficient THP1 cells", "assay": "Kinetic cell death in GSDMD-/- THP1 cells", "type": "cell-based, human", "source_text": "FIGS. 3A-J. Fumarate targets GSDMD and Gasdermin E (GSDME). Kinetic cell death of WT and Gsdmd-BMDMs (A) or WT/GSDMD^-/- THP1 cells (B) treated as indicated. LDH and IL-1β release from WT and Gsdmd^-/- BMDMs (C-D). Immunoblot of GSDMD and GSDME in native and reduced cell lysates from BMDMs (E). Immunoblot of GSDME in streptavidin pulldown from clicked lysates (F). Representative Mass spectra of succinated GSDME (G-H). Immunoblot analysis of GSDMD and GSDME from WT and […]^-/- BMDMs (I). A, B representative of three independent experiments. C, D, I pooled data from three independent experiments. E, F, J representative images from 3 independent experiments. ***, P<0.0001, […] (Two-way ANOVA). Error bars show means±SEM. Cells were plated, treated and incubated in phenol red free medium. Following treatment medium was collected and assessed for LDH release using the CytoTox96 non-radioactive cytotoxicity assay (Promega) as per manufacturer's instructions. Kinetic cell death assays were performed using SytoxOrange and the Biotek Cytation5."}, "EAE in WT mice": {"system": "EAE in WT mice", "assay": "Experimental autoimmune encephalomyelitis (EAE)", "type": "in vivo, mouse"}, "[2]": {"details": "flow cytometry, spinal cord and brain"}}, "note": "Entries after “also recorded” stand apart in the source; their conditions may differ. Counter-ions that a name gives are not always drawn. Like-named read-outs stand apart in the source and are kept apart here.", "data": [{"smiles": "COC(=O)/C=C/C(=O)OC", "note": "[Fumarate, Dimethyl fumarate]", "values": [{"measurement": "inhibitory effect on pyroptosis after poly (dA:dT)", "setting": "BMDMs; LPS primed 2 hours, fumarate 25 μM, LDH and GSDMD immunoblot", "result": "inhibitory effect"}, {"measurement": "inhibitory effect on pyroptosis after Salmonella infection", "setting": "BMDMs; fumarate 25 μM 1 hour, MOI 10, 6 hours, LDH and GSDMD immunoblot", "result": "inhibitory effect"}, {"measurement": "inhibitory effect on pyroptosis after transfected LPS", "setting": "BMDMs; noncanonical inflammasome", "result": "inhibitory effect"}, {"measurement": "In vitro cysteine succination sites", "setting": "m.GSDMD", "result": "same cysteines"}, {"measurement": "In vitro cysteine succination sites", "setting": "h.GSDME", "result": "Cys^45"}, {"measurement": "In vitro cysteine succination sites", "setting": "h.GSDME; listed as DMF", "result": "Cys235; also recorded: Cys371; also recorded: Cys408; also recorded: Cys489; also recorded: Cys45; also recorded: Cys156; also recorded: Cys180"}, {"measurement": "cell death", "setting": "[1]", "result": "inhibited cell death"}, {"measurement": "onset of EAE (clinical scores)", "setting": "EAE in WT mice; WT mice, fumarate daily after EAE induction", "result": "blocked"}, {"measurement": "Th1 (IFN-γ+) cells in the CNS", "setting": "EAE in WT mice; flow cytometry", "result": "reduced"}, {"measurement": "Th17 (IL-17A+) cells in the CNS", "setting": "EAE in WT mice; flow cytometry", "result": "reduced"}, {"measurement": "infiltration of CD4+ T-cells to the CNS", "setting": "EAE in WT mice; [2]", "result": "reduced infiltration"}, {"measurement": "infiltration of CD8+ T-cells to the CNS", "setting": "EAE in WT mice; [2]", "result": "reduced infiltration"}, {"measurement": "infiltration of myeloid cells to the CNS", "setting": "EAE in WT mice; [2]", "result": "reduced infiltration"}, {"measurement": "neuropathology", "setting": "EAE in WT mice; spinal cord sections", "result": "reduced"}, {"measurement": "demyelination", "setting": "EAE in WT mice; spinal cord sections, LFB", "result": "reduced"}, {"measurement": "GSDMD-N in CNS tissue", "setting": "EAE in WT mice; spinal cord, staining and immunoblot", "result": "reduced"}]}]}
